Data from ChEMBL document CHEMBL5724696, “Autophagy assay results for EUbOPEN Chemogenomics Library” (2024).
“And” between values parts separate entries of the source, which are not always exact repeats. Equal entries are not always repeated.

Columns and labels:
U2OS [1] = assay: (§1) Here: values are normalized to the positive (DMSO; basel flux = defined as 100% suppression) and negative (250nM Torin1; mTOR inhibitor; maximal inducer of autophagy defined as 0% suppression) control compounds and represented as % of ER-phagy suppression. […] The impact of autophagy induction on cells is complex and depends on the affected target. […] Of note, treatment concentrations may be sub-optimal for specific compounds, leading to false negative annotations.; assay type: functional, Homo sapiens; details: Compound Concentration 1 uM, Culturing Media DMEM, 1 % Penicillin/Streptomycin, 10% Fetal bovin serum Add-On: blasticidin, Screening Media Control DMEM, 10% Fetal bovin serum Add-On: 1 µg/ml Doxycyclin, Screening Media Samples DMEM
U2OS [2] = assay: as §1; assay type: functional, Homo sapiens; details: Compound Concentration 1 uM, Culturing Media DMEM, 1 % Penicillin/Streptomycin, 10% Fetal bovin serum Add-On: blasticidin, Screening Media Control DMEM, 10% Fetal bovin serum Add-On: 1 µg/ml Doxycyclin, Screening Media Samples DMEM; remark: listed apart in the source
[3] = Timepoint 12 hours, 10% Fetal bovin serum Add-On: 1 µg/ml Doxycyclin 250nM Torin1
[4] = Timepoint 24 hours, 10% Fetal bovin serum Add-On: 1 µg/ml Doxycyclin 250nM Torin1
[5] = Timepoint 36 hours, 10% Fetal bovin serum Add-On: 1 µg/ml Doxycyclin 250nM Torin1
[6] = Timepoint 60 hours, 10% Fetal bovin serum Add-On: 1 µg/ml Doxycyclin 250nM Torin1
[7] = Timepoint 54 hours, 10% Fetal bovin serum Add-On: 1 µg/ml Doxycyclin 250nM Torin1
[8] = Timepoint 12 hours, 10% Fetal bovin serum Add-On: 1 µg/ml Doxycyclin 250nM Torin1, 12 h, 1 µM
[9] = Timepoint 24 hours, 10% Fetal bovin serum Add-On: 1 µg/ml Doxycyclin 250nM Torin1, 24 h, 1 µM
[10] = Timepoint 36 hours, 10% Fetal bovin serum Add-On: 1 µg/ml Doxycyclin 250nM Torin1, 36 h, 1 µM
[11] = Timepoint 60 hours, 10% Fetal bovin serum Add-On: 1 µg/ml Doxycyclin 250nM Torin1, 60 h, 1 µM
[12] = Timepoint 54 hours, 10% Fetal bovin serum Add-On: 1 µg/ml Doxycyclin 250nM Torin1, 54 h, 1 µM

Row | SMILES | ER-phagy suppression (U2OS [1]; [3]) [%] | ER-phagy suppression (U2OS [1]; [4]) [%] | ER-phagy suppression (U2OS [1]; [5]) [%] | ER-phagy suppression (U2OS [1]; [6]) [%] | ER-phagy suppression (U2OS [2]; [3]) [%] | ER-phagy suppression (U2OS [2]; [4]) [%] | ER-phagy suppression (U2OS [2]; [5]) [%] | ER-phagy suppression (U2OS [2]; [7]) [%] | ER-phagy suppression (U2OS [1]; [8]) | ER-phagy suppression (U2OS [1]; [9]) | ER-phagy suppression (U2OS [1]; [10]) | ER-phagy suppression (U2OS [1]; [11]) | ER-phagy suppression (U2OS [2]; [8]) | ER-phagy suppression (U2OS [2]; [9]) | ER-phagy suppression (U2OS [2]; [10]) | ER-phagy suppression (U2OS [2]; [12])
1 | CC(=O)Nc1ccc2ccn(-c3cc(NC4CC4)n4ncc(C#N)c4n3)c2c1 | 13.0338 | 48.9829 | 66.3165 | 75.9257 | 46.1231 | 56.6622 | 75.9855 | 85.4784 | – | – | – | – | – | – | – | –
2 | COc1cc(Nc2nc(C)cc(-c3cnn4nc(OC)ccc34)n2)cc(C(F)(F)F)c1 | -18.8933 | -32.8701 | -15.1622 | -1.233 | -17.1977 | -30.7 | -31.3882 | -33.2663 | – | – | – | – | – | – | – | –
3 | CCC(=O)Nc1cc(Nc2cc(NC3CC3)n3ncc(C#N)c3n2)ccc1C | – | – | – | – | – | – | – | – | 25.0893% and 12.0462% | 43.9531% and 30.6203% | 57.0471% and 46.34% | 65.9791% and 54.7573% | 67.8996% and 33.7182% | 72.4419% and 40.8117% | 80.6378% and 60.338% | 84.9565% and 68.6565%
4 | Cc1ccc(N(C)c2cc(N(C)C3CC3)n3ncc(C#N)c3n2)cc1NC(=O)C1CC1 | 27.2035 | 42.1045 | 58.091 | 60.0735 | 38.742 | 47.4692 | 65.8045 | 75.1314 | – | – | – | – | – | – | – | –
5 | CN(C)C/C=C/C(=O)Nc1cc2c(Nc3ccc(F)c(Cl)c3)ncnc2cc1O[C@H]1CCOC1 [AFATINIB] | 20.6411 | 25.6226 | 22.4767 | 26.9133 | -20.9199 | -7.924 | -3.193 | 3.819 | – | – | – | – | – | – | – | –
6 | COc1cc(Nc2ncc3c(n2)-c2ccc(Cl)cc2C(c2c(F)cccc2OC)=NC3)ccc1C(=O)O [ALISERTIB] | – | – | – | – | – | – | – | – | 32.5772% and 15.1943% | 46.3416% and 31.463% | 37.5206% and 17.8935% | 42.3508% and 18.9115% | 17.2717% and 22.6318% | 12.1028% and 15.999% | -4.94% and 1.582% | 5.417% and 8.819%
7 | Cc1cnc(-c2cc(Cl)ccc2F)cc1-n1c(=O)n(CC(N)=O)c2ccccc21 [Al11] | -12.5733 | -18.3016 | -21.1778 | -20.9921 | -9.163 | -26.2915 | -35.1418 | -38.7834 | – | – | – | – | – | – | – | –
8 | Cc1cc(NC(=O)c2cccc(S(F)(F)(F)(F)F)c2)cc(-n2ccn3nc(-c4cccnc4)cc23)c1 [BAY-309] | 7.299 | 1.781 | 3.502 | -2.656 | 7.105 | -8.178 | -9.412 | -2.397 | – | – | – | – | – | – | – | –
9 | CC1=C(C#N)C(c2ccc3[nH]nc(C)c3c2)C(C#N)=C(C)N1 [BAY-474] | -4.1838 | 7.362 | 15.2848 | 16.6513 | -13.4419 | -18.7669 | -19.5327 | -10.8689 | – | – | – | – | – | – | – | –
10 | Cc1cc(C)c(-n2ccn3nc(-c4cccnc4)cc23)cc1NC(=O)c1cc(C#N)cc(S(F)(F)(F)(F)F)c1 [BAY-826] | 10.7254 | 6.3786 | 7.428 | 6.537 | 21.4229 | 9.146 | 4.6 | 19.8518 | – | – | – | – | – | – | – | –
11 | CC1=C(C#N)[C@@H](c2ccc3[nH]nc(C)c3c2)C(C#N)=C(c2ccc(Cl)cc2)N1 [BAY-827] | -21.2779 | -26.9283 | -30.4241 | -34.9366 | -1.516 | -21.7023 | -24.9956 | -14.7052 | – | – | – | – | – | – | – | –
12 | CNCc1ccc(-c2cc(-c3nc(-c4ccc(S(=O)(=O)C(C)C)cc4)cnc3N)on2)cc1 [BERZOSERTIB] | 117.5 | 96.408 | 85.8575 | 85.0285 | 54.7938 | 32.6309 | 31.7276 | 38.9692 | – | – | – | – | – | – | – | –
13 | C[C@@H]1COCCN1c1cc(C2([S@](C)(=N)=O)CC2)nc(-c2cc[nH]c3nccc2-3)n1 [CERALASERTIB] | -20.381 | -14.6462 | -13.688 | -10.6655 | 5.203 | -10.6428 | -11.7869 | -16.7098 | – | – | – | – | – | – | – | –
14 | CNC(=O)c1ccc(Nc2ncc(C(F)(F)F)c(NCc3nccnc3N(C)S(C)(=O)=O)n2)cc1 [DEFACTINIB] | – | – | – | – | – | – | – | – | -10.5841% and -8.687% | – | -22.8017% and 1.862% | -7.812% and 1.51% | 6.334% and 17.6982% | -6.042% and 9.811% | -8.211% and 10.8271% | –
15 | CCN(CCO)CCCOc1ccc2c(Nc3cc(CC(=O)Nc4cccc(F)c4)[nH]n3)ncnc2c1 [DEFOSBARASERTIB] | – | – | – | – | – | – | – | – | – | – | – | 14.0476% and -1.761% | -1.417% and 3.579% | -12.3988% and -4.272% | -12.8875% and -11.7769% | -17.4995% and -20.4042%
16 | CN1CCN(Cc2ccc(Nc3ncc(Cl)c(Nc4ccccc4S(=O)(=O)N(C)C)n3)cc2)CC1 [DUBERMATINIB] | -20.0629 | 4.178 | 12.5384 | 29.2244 | -2.878 | -1.86 | 7.295 | 21.9101 | – | – | – | – | – | – | – | –
17 | Cn1cc(C2=C(c3cn(C4CCN(Cc5ccccn5)CC4)c4ccccc34)C(=O)NC2=O)c2ccccc21 [ENZASTAURIN] | 35.0144 | 19.4915 | 15.6229 | 9.495 | 5.0599 | -2.39 | -11.3748 | -3.56 | – | – | – | – | – | – | – | –
18 | C[C@H](NC(=O)Nc1cc2[nH]ncc2c(CO)n1)c1ccccn1 [ERKi-NC] | -23.4889 | -22.8439 | -26.5362 | -20.3879 | 16.3207 | -4.124 | -11.6627 | -9.3851 | – | – | – | – | – | – | – | –
